Test results from US8512723B2, “Antimicrobial compositions and methods” (3M Innovative Properties Company, priority 2003, dated 2013).

Columns and labels:
30 MRSA isolates = experiment: Emergence of Resistance Test; assay type: cell-based, Staphylococcus aureus
Method: (§1) Overnight cultures of each of 30 MRSA isolates and 30 Methicillin Susceptible Stapyloccus aureus (MSSA) isolates were grown in Mueller-Hinton broth (MHB) at 35° C. in room air. Bacteria in the broth were concentrated by centrifugation for 15 minutes at 2,200 revolustions per minute (rpm). The spent broth was decanted and replaced with fresh MHB containing 0.5 μL per mL of each of three antimicrobial compositions (Examples 31(IPA), 32(IPA), and 33(IPA)) or 0.125 μg/mL of mupirocin lithium salt (Sigma Aldrich, Milwaukee, Wis.). The cultures were returned to the incubator for 18 hours. Following incubation, each culture was again centrifuged and the bacterial pellet was divided into two aliquots. One aliquot was resuspended in MHB containing fresh antimicrobial compositions at twice the previous concentrations and returned to the incubator for continued exposure.
(§2) The second aliquot was screened for MRSA and MSSA by incubation with 2 mL of MHB containing 4 μg/mL of mupirocin or 1,200 μg/mL of Examples 31(IPA) or 32(IPA) or 33 (IPA). The resistance screens were incubated overnight at 35° C. in room air. After incubation, each screen was subcultured to fresh MHB and incubated for 4 to 6 hours. Minimum inhibitory concentration (MIC) testing was performed on logarithmically growing bacteria recovered from the screen. This procedure was repeated for 8 days. After 8 days of serial exposure, each bacterial pellet was resuspended in bland MHB and incubated overnight. The MIC of each antimicrobial composition or mupirocin was determined as the MIC90 (range) before and daily during serial passage.
(§3) The IPA modified antimicrobial compositions were tested using the Emergence of Resistance Test. The results are shown at baseline (T0), after eight days (T8) and the ratio of T0 to T8 in Table 9d.

[1] = test system: 30 Methicillin Susceptible Stapyloccus aureus (MSSA) isolates; experiment: Emergence of Resistance Test; assay type: cell-based, Staphylococcus aureus
Method: as §1, §2, §3

[2] = test system: MRSA #561 (clinical isolate of methicillin resistant staphylococcus); experiment: Murine MRSA nasal colonization model; assay type: in vivo, mice; details: 10 μL per nare, three times daily for two days; nares cultured three days after treatment
Method: 1999 Infect and Immunity 67(10) 5001-5006. Prior to evaluation of the active compositions the lowest number of S. aureus required to establish nasal colonization in 70% of mice detectable 5 days after challenge and persisting at least 10 days after challenge was determined. This was using an innoculum of 10^8 cfu/nare. Mice (239 described as 25 g to 30 g Hsd:ICR) were challenged intranasally with 10^8 MRSA #561 (a clinical isolate of methicillin resistant staphylococcus obtained from Mayo Clinic, Rochester, Minn.) and arbitrarily assigned to one of five treatment regimens: mupirocin ointment, bland ointment, antimicrobial compositions of Examples 31, 32, and 33. The bland ointment consisted of petrolatum (89%), glycerin (10%) and DOSS (1%). Mice received either no treatment (none) or treatment with 10 μL per nare of warmed (42° C.) ointment (one of five) to each nare, three times daily for two days Three days after treatment, both anterior nares were swabbed and cultured for MRSA. Colonies appearing to be S. aureus were confirmed with a latex agglutination test. S. aureus was detected in 160 colonization cultures from 239 mice challenged. These mice continued to be studied. The results of the treatments are listed in Table 9e as the number of animals with no MRSA detected after treatment (successful), the percent of the animals treated successfully, the number of animals with MRSA (failure), and the percent of animals whose treatment failed.

[3] = MIC90 after eight days (T8) of serial exposure, unit assumed
[4] = MIC90 at baseline (T0), unit assumed

Which results are given for C/C(=C\C(=O)OCCCCCCCCC(=O)O)C[C@@H]1OC[C@H](C[C@@H]2O[C@H]2[C@@H](C)[C@H](C)O)[C@@H](O)[C@H]1O [Mupirocin, mupirocin]?
MRSA Final (T8) MIC (30 MRSA isolates; [3]): 64 mg/L; MRSA Initial (T0) MIC (30 MRSA isolates; [4]): 0.25 mg/L; Increase of the MIC (30 MRSA isolates; eight days of serial exposure): increased dramatically; MSSA Final (T8) MIC [1, 3]: 128 mg/L; MSSA Initial (T0) MIC [1, 4]: 0.25 mg/L; MSSA MIC fold increase (T8/T0) ([1]; ratio of MIC at T0 and T8): 512; Number of Mice with MRSA [2]: 19; Number of Mice without MRSA [2]: 19; Percent Treated Successfully [2]: 50%; Percent Whose Treatment Failed [2]: 50%
